Source: article PMC12467512, “Pharmacological Characterization of the Novel CRF1 Receptor Antagonist, Thiazolo[4,5-d] Pyrimidine Analog, M43” (Biomolecules, 2025)

Target: T1, CRF1R (type 1 receptor for the corticotropin-releasing factor) (Homo sapiens, UniProt P34998)
T1 construct: gene CRHR1
T1 sequence (P34998 24-415): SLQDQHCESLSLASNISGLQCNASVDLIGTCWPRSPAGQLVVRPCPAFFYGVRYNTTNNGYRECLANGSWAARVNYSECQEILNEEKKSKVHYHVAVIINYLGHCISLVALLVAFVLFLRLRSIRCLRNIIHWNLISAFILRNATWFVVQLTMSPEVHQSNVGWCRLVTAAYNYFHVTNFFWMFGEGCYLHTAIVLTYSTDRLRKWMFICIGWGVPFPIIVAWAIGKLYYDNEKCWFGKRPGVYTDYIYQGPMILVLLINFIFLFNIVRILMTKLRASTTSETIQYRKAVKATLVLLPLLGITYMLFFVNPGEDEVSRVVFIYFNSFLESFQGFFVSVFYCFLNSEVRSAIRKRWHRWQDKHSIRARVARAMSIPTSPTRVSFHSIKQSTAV
Experiment: inhibition of cAMP accumulation stimulated by […] Tyr0-sauvagine in HEK […] cells stably expressing human CRF1R; also […] shift of agonist potency at […] M43
Format: cell-based

IC50: 43.5 nM
SMILES: CCCCN(CC)c1nc(C)nc2c1s/c(=N\O)n2-c1c(Cl)cc(Cl)cc1Cl [M43]
